# Measurements from patent publication US12390436B1, “Mutations in mitochondrial enzyme GPT2 cause metabolic dysfunction and neurological disease with developmental and progressive features” (priority 2020, dated 2025).
# “Also recorded” adds a separate entry of the source.
# What was measured:
# germline Gpt2-null mice = assay: Dietary supplementation of germline Gpt2-null mice: survival and phenotype; type: in vivo, mouse
# Description: Vertebrate animal assays. The assays use a wild-type mouse line and a genetically modified mouse line (i.e., germline Gpt2-null line). A person having ordinary skill in the biomedical art can perform these assays following the procedures in protocol 18-11-0002, approved by the Brown University Institutional Animal Care and Use Committee (IACUC). All animals used in assays described in this specification were housed at the Brown University Animal Care Facility.
# Rescue of motor phenotype in vivo with dietary modifications. Synthesis of alanine in the brain is prominently deficient in Gpt2-null animals. An overriding hypothesis (OH1) is that, in the absence of GPT2, alanine changes from a non-essential amino acid to an essential amino acid in neurons, and neuronal alanine deficiency impedes protein synthesis and neuronal growth. The inventors determined there is an anaplerotic defect in Gpt2-null brains (OH2). The inventors are attempting to rescue animal survival, weight gain, and health of the motor system by alanine supplementation, anaplerotic supplementation, and the combination. […] The inventors are testing the extent to which other phenotypic aspects, particularly related to motor defects, are ameliorated by alanine supplementation over time with and without anaplerotic supplementation. The inventors also investigate the requirement for exogenous dietary alanine by removing alanine from the diet of Gpt2-null animals.
# Alanine supplementation: Littermate germline Gpt2-null and wild-type animals are fed either high-alanine diet (5% by weight), alanine-deprived diet (0%), or standard chow (1.2%). The formulations generated by Envigo are fed to breeding pairs, pregnant mothers, and pups, based on prior studies by Battaglia & Regnault, Placenta, 22, 145-161 (2001). Food is provided ad libitum. Therefore, newborn Gpt2-mutant pups are receiving the diet throughout gestation and from birth onward. […] The inventors measured alanine in peripheral blood and brain tissue by metabolomics. […]
# [1] = in vivo; cited from earlier work
# [2] = preclinical studies (Willis et al. 2010; Hadera et al. 2014); cited from earlier work
# [3] = clinical trials, e.g., NCT01379625 and NCT01993186 (Vockley et al. 2017); cited from earlier work
Structure (SMILES),"effect on survival of germline Gpt2-null animals (in words) (germline Gpt2-null mice; alanine supplementation / high-alanine diet, preliminary work)","effect on phenotype in the mouse model of Gpt2 disease (in words) (germline Gpt2-null mice; dietary supplementation in development, preliminary data)","survival of germline Gpt2-null pups beyond weaning (germline Gpt2-null mice; supplemental dietary alanine to pregnant and lactating mothers and pups, freely feeding, vs. 0% on standard chow, p<0.0001, log-rank (Mantel-Cox) test)",crosses the blood-brain barrier [1],antiseizure effects [2],tolerability [3]
C[C@H](N)C(=O)O [alanine],impact; also recorded: improves the survival,benefited; also recorded: partially ameliorates the phenotype,36.7%,crosses the blood-brain barrier,–,–
"CCCCCCC(=O)OCC(COC(=O)CCCCCC)OC(=O)CCCCCC [triheptanoin, reference compound]",–,–,–,–,has antiseizure effects,well tolerated
